Structures can show the parent of a compound that is named as a salt.

The nature of data set [1]: Blood drug concentration analysis (LC-MS/MS) in In Vivo Depletion Assay. Conditions: human CCR2 (hCCR2) knock-in, 057 background, mouse, whole blood, hCCR2 knock-in mice, IV 0.1 mpk compound + 10 mpk anti-cotinine antibody, 48 hours post-dose, read-out: Exposure of Compound of Formula (I) 48 hours post-dose. The protocol:
(§1) Human CCR2 (hCCR2) knock-in mice (057 background) were dosed intravenously with a PBS solution containing a compound of Formula (I) to measure depletion of CCR2 expressing cells in peripheral blood. Peripheral blood from IV dosed mice was also analyzed to determine PK properties of the ARM compounds of Formula (I).
(§2) Administration to Animal: Solution formulation of antibody and compound of Formula (I) was injected (bolus injection) to the restrained mouse in the right/left lateral tail vein. Animals were dosed with 0.1 milligram per kilogram (mpk) of the compound of Formula (I) and 10 mpk of the anti-cotinine antibody.
Collection of Blood for PK: Blood was collected at time points 0.25 hour, 2 hours, and […] following administration (50 μL/time point) through retro-orbital bleeding under mild isoflurane anesthesia.
(§3) Terminal bleeding at end of experiment (48 hr): Approximately 250 μL of blood in K2EDTA tube and approximately 250 μL of blood in SST (serum separation tube) was collected from each mouse through retro-orbital bleeding under deep isoflurane anesthesia. After bleeding, each mouse was sacrificed by cervical dislocation. The blood distribution at termination was determined as follows: • For PK: 50 μL of K2EDTA blood was transferred to another tube for PK • Flow cytometry: Remaining blood (˜200 μL) was used for flow cytometry analysis. • For serum collection: serum separator tubes (BD) were centrifuged at 4° C., 5000 rpm for 15 minutes. Approximately 100 μL serum was separated and stored at −80° C. for further usage. • Blood drug concentration: Samples collected at the various timepoints (0.25 hr, 2 hr, 24 and 48 hr) were analyzed to determine blood drug concentration.
Drug concentration in blood samples was determined by an LC-MS/MS-based bioanalytical method developed at Syngene. Samples were analyzed on Q-Trap, API-5500 LC-MS/MS system coupled with Exion UHPLC system from SCIEX, USA operated in multiple reaction monitoring mode employing electrospray ionization technique in positive polarity. Analyte and internal standard peaks were resolved on Synergi Polar, 75×2.0 mm, 4μ column using mobile phase 10 mM Ammonium acetate in Milli-Q water as phase A and 0.1% Formic acid in acetonitrile as Phase B. Gradient elution was performed with initial composition 95% Phase A at 0.0 min, holding it for 0.2 minutes, ramping to 5% by 1.0 minute, keeping the same for next 0.5 minutes and coming back to 95% by 1.6 minutes. The total run time was 2 minutes.
Working dilutions for calibration curve and quality control standards were prepared by serially diluting 20 mg/mL stock solution with DMSO. Spiked concentrations for calibration curve in the whole blood ranged from 1 ng/mL to 1000 ng/mL. The working solution of internal standard (Verapamil, 25 ng/mL) was prepared in acetonitrile. 10 μL of the study sample and calibration curve, quality control, and blank whole blood samples were aliquoted in 96 deep well plates for processing. 10 μL of Milli-Q water was added to all the samples and briefly vortexed to initiate complete hemolysis. 10 μL of 20 mM dithiothreitol (OTT) was added to all the samples and incubated for 30 minutes at 37° C. The addition of DTT enhanced the recovery of ARM compounds of Formula (I) from the biological matrix. 300 μL of working internal standard solution was added to all samples except total blank and wash samples, where 300 μL of acetonitrile was added. All the samples were vortex mixed for 5 minutes, followed by centrifugation at 4000 rpm for 10 minutes at 4° C. Supernatants were transferred to the loading plate and injected 3 μL to LC-MS/MS system for analysis. The results are shown below in Table 4 and are reported as compound exposure 48 hours post-dose

The subject of data set [2] is CCR2 expressing cells (CD11b+Ly6c+ Hi) in peripheral blood. Description: In Vivo Depletion Assay (flow cytometry of peripheral blood). The arrangement: species or system Human CCR2 (hCCR2) knock-in mice. The conditions noted are these: hCCR2 knock-in mice; IV 0.1 mpk compound + 10 mpk anti-cotinine antibody (mouse IgG2a Fc); peripheral blood at 48 hr. The protocol:
as §1
Stock solution preparation: Stock solutions of compounds of Formula (I) were prepared at 20 mg/mL and 100 mg/mL in DMSO for PK/PD and dose tolerability studies respectively. Stock solutions were stored at −20° C. until further usage.
Formulations preparation: On the day of experiment, the stock solution of the compound of Formula (I) was removed from storage at −20° C. and thawed at room temperature. Anti-cotinine antibody having a heavy chain sequence of SEQ ID NO: 13 and a light chain sequence of SEQ ID NO: 14 (rabbit variable region sequence with mouse IgG2a Fc domain), if required was removed from storage at −80° C. and thawed at room temperature. Antibody vials were immediately transferred into wet ice after thawing. Compounds of Formula (I) were further diluted in DMSO as per experimental requirements.
Formulation composition: The formulation composition was Saline: DMSO: PBS. Saline was added based on the quantity required and then stock solution of the compound of Formula (I) prepared in DMSO, followed by addition of antibody in PBS. Formulations were incubated at room temperature for 30 minutes before administration to the mouse. DMSO was used at 1 to 2% (v/v) in the final formulation.
as §2, §3
CCR2 depletion in peripheral blood was determined by flow cytometry. Briefly, peripheral blood was collected from all animals at the end of study termination and processed. Blood samples were lysed using 1×RBC Lysis buffer and the resulting cell pellet was washed twice in FACS buffer (HBSS containing 5% FBS). Cells were subjected to Fc blocking using mouse Fc block from Biolegend (Trustain, anti-mouse CD16/32, Cat: 101319) to block non-specific binding followed by surface staining for immune markers (CD45, CD3, CD11b, Ly6C, human CCR2). Surface staining was done for 30 minutes in ice and cells were washed twice to remove unbound antibodies. Cells were stained with 7AAD to determine viability and acquired on BD FACSVerse flow cytometer. Appropriate FMO controls and single-color controls were included in the experiment for gating and compensation respectively.
Percent depletion of CD11b+Ly6c+ Hi cells and CCR2 expression for the different treatment groups was determined. The results are shown below in Table 4 and are reported as percent (%) depletion of CCR2 expressing cells.
Background: Flow cytometry measures light scatter and fluorescence of single cells or particles in a stream.

For the compound `CO[C@@H]1COCC[C@@H]1N[C@@H]1CC[C@](CCCNC(=O)[C@H]2CC[C@@H](NC(=O)CCCO[C@H]3CC[C@@H](OCCNC(=O)[C@H]4CC(=O)N(C)[C@@H]4c4cccnc4)CC3)CC2)(C(=O)N2CCc3ncc(C(F)(F)F)cc3C2)C1` [Example 4, (2S,3S)-N-(2-(((1S,4R)-4-(4-(((1R,4S)-4-((3-((1S,3R)-3-(((3S,4S)-3-Methoxytetrahydro-2H-pyran-4-yl)amino)-1-(3-(trifluoromethyl)-5,6,7,8-tetrahydro-1,6-naphthyridine-6-carbonyl)cyclopentyl)propyl)carbamoyl)cyclohexyl)amino)-4-oxobutoxy)cyclohexyl)oxy)ethyl)-1-methyl-5-oxo-2-(pyridin-3-yl)pyrrolidine-3-carboxamide, Formic acid salt], the concentration at 48 h in data set [1] came to 26.6 ng/mL. In addition, the “% Depletion of CCR2 expressing cells” value in data set [2] was 99.69%.

With `CO[C@@H]1COCC[C@@H]1N[C@@H]1CC[C@@](C(=O)N2Cc3cc(C(F)(F)F)cnc3[C@@H](NC(=O)[C@H]3CC[C@H](NC(=O)CCCO[C@H]4CC[C@H](OCCNC(=O)[C@H]5CC(=O)N(C)[C@@H]5c5cccnc5)CC4)CC3)C2)(C(C)C)C1` [Example 15, (2S,3S)-N-(2-(((1R,4S)-4-(4-(((1S,4R)-4-(((S)-6-((1S,3R)-1-isopropyl-3-(((3S,4S)-3-methoxytetrahydro-2H-pyran-4-yl)amino)cyclopentane-1-carbonyl)-3-(trifluoromethyl)-5,6,7,8-tetrahydro-1,6-naphthyridin-8-yl)carbamoyl)cyclohexyl)amino)-4-oxobutoxy)cyclohexyl)oxy)ethyl)-1-methyl-5-oxo-2-(pyridin-3-yl)pyrrolidine-3-carboxamide], the concentration at 48 h in data set [1] was found to be 35 ng/mL. The “% Depletion of CCR2 expressing cells” value in data set [2] is recorded as 94.04%.

Consider `CO[C@@H]1COCC[C@@H]1N[C@@H]1CC[C@](CCCCCNC(=O)[C@H]2CC[C@H](NC(=O)CCCO[C@H]3CC[C@H](OCCNC(=O)[C@H]4CC(=O)N(C)[C@@H]4c4cccnc4)CC3)CC2)(C(=O)N2CCc3ncc(C(F)(F)F)cc3C2)C1` [Example 9, (2S,3S)-N-(2-(((1R,4S)-4-(4-(((1S,4R)-4-((5-((1S,3R)-3-(((3S,4S)-3-Methoxytetrahydro-2H-pyran-4-yl)amino)-1-(3-(trifluoromethyl)-5,6,7,8-tetrahydro-1,6-naphthyridine-6-carbonyl)cyclopentyl)pentyl)carbamoyl)cyclohexyl)amino)-4-oxobutoxy)cyclohexyl)oxy)ethyl)-1-methyl-5-oxo-2-(pyridin-3-yl)pyrrolidine-3-carboxamide], for which, in data set [1], the concentration at 48 h was 49.8 ng/mL. The “% Depletion of CCR2 expressing cells” value in data set [2] came out at 99%.

On to `CO[C@@H]1COCC[C@@H]1N[C@@H]1CC[C@@](C(=O)N2CCc3nc(CCCCOc4cccc(C(=O)NCCOCCOCCOCCOCCOCCOCCOCCOCCOCCNC(=O)[C@H]5CC(=O)N(C)[C@@H]5c5cccnc5)c4)c(C(F)(F)F)cc3C2)(C(C)C)C1` [Example 22, (2S,3S)—N-(1-(3-(4-(6-((1S,3R)-1-Isopropyl-3-(((3S,4S)-3-methoxytetrahydro-2H-pyran-4-yl)amino)cyclopentane-1-carbonyl)-3-(trifluoromethyl)-5,6,7,8-tetrahydro-1,6-naphthyridin-2-yl)butoxy)phenyl)-1-oxo-5,8,11,14,17,20,23,26,29-nonaoxa-2-azahentriacontan-31-yl)-1-methyl-5-oxo-2-(pyridin-3-yl)pyrrolidine-3-carboxamide], for which, in data set [1], the concentration at 48 h was found to be 15.5 ng/mL. Besides, the “% Depletion of CCR2 expressing cells” value in data set [2] was 89%.

These data come from patent US20250154288A1, “CYTOTOXICITY TARGETING CHIMERAS FOR C-C CHEMOKINE RECEPTOR 2-EXPRESSING CELLS” (GLAXOSMITHKLINE INTELLECTUAL PROPERTY DEVELOPMENT LIMITED, priority 2022, published 2025).
